Measurements from patent US8901072B2, “Glycopeptide and lipoglycopeptide antibiotics with improved solubility” (The Medicines Company, priority 2009, dated 2014).
Converted amounts (≈) assume the structure as drawn.

Tests used:
[1] = Solubility in phosphate buffered saline; type: physicochemical; conditions: pH 7.4
Description: To a sample of the material of known mass were added known volumes of phosphate buffered saline until complete dissolution is observed. Suspensions were centrifuged for 5 min at 10000 rpm. […] Upon complete dissolution, the solution is diluted until the final concentration is 0.5 mg/mL to ensure that the material remains soluble over the entire range of concentrations.

S. aureus ATCC 13709 = assay: In vitro antibacterial susceptibility (MIC, broth microdilution); type: cell-based; conditions: for MIC against S. aureus ATCC 13709, CAMHB: cation-adjusted Mueller-Hinton broth, 37° C., 18 h; for Antibacterial activity compared with oritavancin 5: deduced from the MIC data of Table 2
Description: Susceptibility of S. aureus strain ATCC13709 to oritavancin (5) and synthesized compounds was determined following the guidelines set by the Clinical and Laboratory Standards Institute (formerly the National Committee for Clinical Laboratory Standards) (M26-A). Compounds were serially diluted two-fold in either DMSO (Oritavancin 5) or in PBS and transferred to cation-adjusted Mueller Hinton broth (CAMHB; Becton Dickinson). 50 μL of compounds diluted in CAMHB was mixed with 100 μL of bacteria diluted in CAMHB in 96-well microtiter plates. The final number of micro-organisms in the assay was 5×10^5 c.f.u. per mL and the final concentration of DMSO in the assay, if present, was 1.25%. All solutions may contain 0.002% Tween as indicated. Assays were set up in duplicate and incubated at 37° C. for 18 h. The concentration of compound that inhibited visible growth was reported as the minimum inhibitory concentration (MIC).

[2] = 10 mM phosphate buffered saline (0.138 M NaCl, 2.7 mM KCl)

Row | Compound | Solubility (mg/mL) PBS [1, 2] | MIC against S. aureus ATCC 13709, CAMHB + 0.002% tween (S. aureus ATCC 13709) [µg/mL] | MIC against S. aureus ATCC 13709, CAMHB + 50% human serum (S. aureus ATCC 13709) [µg/mL] | MIC against S. aureus ATCC 13709, CAMHB + 50% mouse serum (S. aureus ATCC 13709) [µg/mL] | MIC against S. aureus ATCC 13709, CAMHB (S. aureus ATCC 13709) [µg/mL] | Antibacterial activity compared with oritavancin 5 (S. aureus ATCC 13709) | MIC against S. aureus ATCC 13709, CAMHB + 50% rat serum (S. aureus ATCC 13709) [µg/mL] | Solubility (mg/mL) PBS [1] [mg/mL]
1 | CC(C)CC(C(=O)NC1C(=O)NC(CC(N)=O)C(=O)NC2C(=O)NC3C(=O)NC(C(=O)NC(C(=O)O)c4cc(O)cc(O)c4-c4cc3ccc4O)C(OC3CC(C)(N)C(O)C(C)O3)c3ccc(c(Cl)c3)Oc3cc2cc(c3OC2OC(CO)C(O)C(O)C2OC2CC(C)(NCc3ccc(-c4ccc(Cl)cc4)cc3)C(O)C(C)O2)Oc2ccc(cc2Cl)C1O)N(C)C(=O)OCOC(=O)CCC(=O)NC(CCC(=O)O)(CCC(=O)O)CCC(=O)O (stereo not shown) [Compound 78] | 4 mg/mL (≈ 1820 µM) | 1 | 16 | 32 | 8 (≈ 3.64 µM) | weaker activities |  | 
2 | CC(C)CC(C(=O)NC1C(=O)NC(CC(N)=O)C(=O)NC2C(=O)NC3C(=O)NC(C(=O)NC(C(=O)O)c4cc(O)cc(O)c4-c4cc3ccc4O)C(OC3CC(C)(N)C(O)C(C)O3)c3ccc(c(Cl)c3)Oc3cc2cc(c3OC2OC(CO)C(O)C(O)C2OC2CC(C)(NCc3ccc(-c4ccc(Cl)cc4)cc3)C(O)C(C)O2)Oc2ccc(cc2Cl)C1O)N(C)C(=O)OCOC(=O)CNCCCNCCCCNCCCN (stereo not shown) [Compound 38] | <0.5 mg/mL | 0.25 | 1 | 1 | 2 (≈ 0.948 µM) | within an order of magnitude of that of oritavancin 5 | 0.5 | 
3 | CC(C)CC(C(=O)NC1C(=O)NC(CC(N)=O)C(=O)NC2C(=O)NC3C(=O)NC(C(=O)NC(C(=O)O)c4cc(O)cc(O)c4-c4cc3ccc4O)C(OC3CC(C)(N)C(O)C(C)O3)c3ccc(c(Cl)c3)Oc3cc2cc(c3OC2OC(CO)C(O)C(O)C2OC2CC(C)(NCc3ccc(-c4ccc(Cl)cc4)cc3)C(O)C(C)O2)Oc2ccc(cc2Cl)C1O)N(C)C(=O)OCOC(=O)CCC(=O)O (stereo not shown) [Compound 7] | <0.5 mg/mL | 0.125 | 0.5 | 0.5 | 2 (≈ 1.02 µM) | within an order of magnitude of that of oritavancin 5 | 0.25 | 
4 | CC(C)CC(C(=O)NC1C(=O)NC(CC(N)=O)C(=O)NC2C(=O)NC3C(=O)NC(C(=O)NC(C(=O)O)c4cc(O)cc(O)c4-c4cc3ccc4O)C(OC3CC(C)(N)C(O)C(C)O3)c3ccc(c(Cl)c3)Oc3cc2cc(c3OC2OC(CO)C(O)C(O)C2OC2CC(C)(NCc3ccc(-c4ccc(Cl)cc4)cc3)C(O)C(C)O2)Oc2ccc(cc2Cl)C1O)N(C)C(=O)OCOC(=O)C(N)CCCCN (stereo not shown) [Compound 44] | <0.5 mg/mL | 0.5 | 4 | 0.25 | 4 (≈ 2 µM) | within an order of magnitude of that of oritavancin 5 | 0.5 | 
5 | CC(C)CC(C(=O)NC1C(=O)NC(CC(N)=O)C(=O)NC2C(=O)NC3C(=O)NC(C(=O)NC(C(=O)O)c4cc(O)cc(O)c4-c4cc3ccc4O)C(OC3CC(C)(N)C(O)C(C)O3)c3ccc(c(Cl)c3)Oc3cc2cc(c3OC2OC(CO)C(O)C(O)C2OC2CC(C)(NCc3ccc(-c4ccc(Cl)cc4)cc3)C(O)C(C)O2)Oc2ccc(cc2Cl)C1O)N(C)C(=O)OCOC(=O)CCP(=O)(O)O (stereo not shown) [Compound 84] | 0.5 to 1 mg/mL | 0.125 | 0.5 | 2 | 1 (≈ 0.499 µM) | within an order of magnitude of that of oritavancin 5 |  | 
6 | CNC(CC(C)C)C(=O)NC1C(=O)NC(CC(N)=O)C(=O)NC2C(=O)NC3C(=O)NC(C(=O)NC(C(=O)OCC(=O)NCCCCN)c4cc(O)cc(O)c4-c4cc3ccc4O)C(OC3CC(C)(N)C(O)C(C)O3)c3ccc(c(Cl)c3)Oc3cc2cc(c3OC2OC(CO)C(O)C(O)C2OC2CC(C)(NCc3ccc(-c4ccc(Cl)cc4)cc3)C(O)C(C)O2)Oc2ccc(cc2Cl)C1O (stereo not shown) [Compound 90c] | <1.6 mg/mL | 0.25 | 0.125 | 0.5 | 1 (≈ 0.52 µM) | within an order of magnitude of that of oritavancin 5 |  | 
7 | CNC(CC(C)C)C(=O)NC1C(=O)NC(CC(N)=O)C(=O)NC2C(=O)NC3C(=O)NC(C(=O)NC(C(=O)OCC(=O)N(C)CCN(C)C)c4cc(O)cc(O)c4-c4cc3ccc4O)C(OC3CC(C)(N)C(O)C(C)O3)c3ccc(c(Cl)c3)Oc3cc2cc(c3OC2OC(CO)C(O)C(O)C2OC2CC(C)(NCc3ccc(-c4ccc(Cl)cc4)cc3)C(O)C(C)O2)Oc2ccc(cc2Cl)C1O (stereo not shown) [Compound 103] | ≧100 mg/mL | 0.25 | 0.25 | 0.5 | 2 (≈ 1.03 µM) | within an order of magnitude of that of oritavancin 5 | 0.125 | 
8 | CNC(CC(C)C)C(=O)NC1C(=O)NC(CC(N)=O)C(=O)NC2C(=O)NC3C(=O)NC(C(=O)NC(C(=O)SCC[N+](C)(C)C)c4cc(O)cc(O)c4-c4cc3ccc4O)C(OC3CC(C)(N)C(O)C(C)O3)c3ccc(c(Cl)c3)Oc3cc2cc(c3OC2OC(CO)C(O)C(O)C2OC2CC(C)(NCc3ccc(-c4ccc(Cl)cc4)cc3)C(O)C(C)O2)Oc2ccc(cc2Cl)C1O (stereo not shown) [Compound 98] |  | 0.25 | 0.25 | 2 | 1 | within an order of magnitude of that of oritavancin 5 | 0.125 | 
9 | CC(C)CC(C(=O)NC1C(=O)NC(CC(N)=O)C(=O)NC2C(=O)NC3C(=O)NC(C(=O)NC(C(=O)O)c4cc(O)cc(O)c4-c4cc3ccc4O)C(OC3CC(C)(N)C(O)C(C)O3)c3ccc(c(Cl)c3)Oc3cc2cc(c3OC2OC(CO)C(O)C(O)C2OC2CC(C)(NCc3ccc(-c4ccc(Cl)cc4)cc3)C(O)C(C)O2)Oc2ccc(cc2Cl)C1O)N(C)C(=O)CNCCCNCCCCNCCCN (stereo not shown) [Compound 36] |  | 0.06 | 0.125 | 0.25 | 1 (≈ 0.491 µM) |  | 0.125 | 
10 | CC(=O)[O-].CNC(CC(C)C)C(=O)NC1C(=O)NC(CC(N)=O)C(=O)NC2C(=O)NC3C(=O)NC(C(=O)NC(C(=O)SCC[N+](C)(C)C)c4cc(O)cc(O)c4-c4cc3ccc4O)C(OC3CC(C)(N)C(O)C(C)O3)c3ccc(c(Cl)c3)Oc3cc2cc(c3OC2OC(CO)C(O)C(O)C2OC2CC(C)(NCc3ccc(-c4ccc(Cl)cc4)cc3)C(O)C(C)O2)Oc2ccc(cc2Cl)C1O (stereo not shown) [98 (acetate salt)] |  |  |  |  |  |  |  | 20
